These results are taken from US12077502B2, “Formulations of T-type calcium channel modulators and methods of use thereof” (PRAXIS PRECISION MEDICINES, INC., priority 2019, dated 2024).

The series is described as follows: Safety and tolerability in the essential tremor clinical study. The series is classed as in vivo, human. The conditions noted are these: 20 mg then 40 mg once a day, 14 days (formulation 5), emerging data.

In the case of `CC(C)(C)NC(=O)CN1CCC(CNC(=O)c2cc(F)cc(Cl)c2)CC1` [compound of formula (I)], the tolerability entry is reported as “well tolerated”.
